Patent publication US20120122908A1, “Novel C-4 Substituted Retinoids” (University of Maryland, priority 2000, published 2012)
Read-outs that look alike come from different tables or passages of the source.

Tests used:
ATRA 4-hydroxylase = ATRA 4-hydroxylase (Mesocricetus auratus, UniProt A0A1U7QD41); assay: Hamster liver microsome assay of ATRA metabolism (ATRA 4-hydroxylase inhibition); assay type: biochemical
Description: Washed hamster liver microsomes were prepared as follows: Livers are removed from sacrificed animals, rinsed in ice-cold 0.9% NaCl solution and homogenized in a 3-fold volume of 0.25 M sucrose-0.05 M Tris-HCl (pH 7.4) using a blender. Microsomes are isolated by differential centrifugation (10,000×g, 20 minutes; 100,000×g, 60 minutes; 4° C.) using a well-known technique (Van Wauwe, J.; Van Nyen, G.; Coene, M-C.; Stoppie, P.; Cols, W.; Goossens, J, Borghgraef, P.; Janssen, P A J, Liarozole, an Inhibitor of Retinoic Acid Metabolism, Exerts Retinoid-Mimetic Effects, In Vivo. J. Pharmacol. Expt. Ther. 261, 773-779, 1992). The microsomes are suspended in PBS buffer (pH 7.4), in 1 ml aliquots and stored at −70° C. until required.
The standard reaction mixture (total of 400 μl) is composed of assay buffer, 140 μl; microsomes, 100 μl ([…]); NADPH, 100 μl ([…]); and a C-4 substituted ATRA analog dissolved in DMSO, 40 μl. After a 3 minute preincubation at 37° C., the reaction is initiated by addition of 20 μl of [11,12-^3H]-ATRA (20 μCi/ml). The incubation is carried out for 30 minutes under oxygen with shaking in a water bath at 37° C. The reaction is stopped by acidification with 0.1 ml formic acid, and the samples are extracted (×2) with EtOAc (2 ml) containing 0.05% butylated hydroxyanisole. The combined organic extracts are evaporated in vacuo, dissolved in 200 μl of the mobile phase for HPLC. An aliquot is analyzed for tritium content by liquid scintillation spectrometry. Usually, >95% of the added radioactivity is recovered. Most of the samples (150 μl) are analyzed on a 10 (m C18 Bondapak column (3.9×300 mm, Millipore), eluted with a multi-linear gradient solvent system: i, MeOH—H2O—HCOOH (60:40:0.05) containing 10 mM ammonium acetate (100 (0%) and ii, MeOH (0 (100%) at 2 ml/min. The radioactivity is measured by an on-line radio-detector. The Rts of ATRA, 4-hydroxy-ATRA and 4-oxo-ATRA are determined by UV absorbance at 350 nm in separate cuvettes. Typically, 80±5% of [11, 12-^3H]ATRA is converted into the metabolites.
The C-4 substituted ATRA analogs are tested at two concentrations, 500 and 1000 nM. IC50 and Ki values are determined.
Incubation of [11,12-^3]ATRA with hamster liver microsomes as described above results in the formation of polar metabolites, including 4-hydroxy-ATRA and 4-oxo-ATRA (see FIG. 7A). […] VN/14-1RA inhibits cytochrome P450-dependent metabolism of ATRA.
Table 2B represents repeated testing of some of the compounds in Table 2A and testing on additional compounds. For comparison, the IC50 values of liarozole and ketoconazole (known inhibitors of ATRA 4-hydroxylase) were also determined.

PC-3 tumors = assay: Growth of PC-3 tumors in male nude mice; assay type: in vivo; settings: PC-3 xenografts
Description: FIG. 20: Effect of ATRA and VN/50A-1 on PC 3 Tumor Volumes in Male Nude Mice
The effects of VN/50A-1 on tumor growth was determined in mouse xenografts and compared to ATRA as the reference treatment (FIG. 20). Mice were grouped 35 days after cell inoculation when measurable tumor volume was approximately 500 mm^3. Total tumor volume in the control mice increased 5.4-fold over 7 weeks and tumor volume in the mice treated with ATRA increased by 3.2-fold (41% reduction compared with control). In the mice treated with VN/50A-1, tumor volume increased by 3.5-fold, which was 38% reduction versus control mice, which correlated well with accumulation of ATRA in plasma and in tumors. […] VN/50A-1 is completely eliminated from plasma within 3 hour of administration to mice (see FIG. 18). The inventive compounds with longer half-lives will have favorable bioavailability and are expected to be more efficacious.

LNCaP cells = assay: LNCaP cell growth, compound in combination with ATRA; assay type: cell-based, human; settings: 10^−8 to 10^−5 M in combination with 10^−5 M ATRA, compared with no drug or ATRA only
Description: LNCaP cells are androgen-dependent cell cultures. PC-3 cells are androgen independent cell culture.
LNCaP cells are transferred into ATRA-free medium 3 days prior to start of experiments. Medium consist of phenol red-free IMEM supplemented with 5% FBS and 1% P/S. Cell are then plated into 24-well culture plates (15000 cells per well) in 1 mL of same medium. After a 24-hour attachment period, the vehicle (ethanol) or ATRA (10^−5 M) alone or ATRA in combination with a novel compound at a range of concentrations are added to triplicate wells. Medium/treatments are changed every 3 days. After 9 days of treatment, cells are removed from the wells with typsin/EDTA and counted in a Coulter counter. Using well-known methods (Wouters W, Van Dun J, Dillen A, Coene M.-C, Cools W and De Coster R, Effects of liarozole, a new antitumoral compound an retinoic acid-induced inhibition of cell growth and on retinoic acid metabolism in MCF-7 breast cancer cells, Cancer Res 52: 2841-2846, 1992), one determines the inhibitory effect of the novel compounds on LNCaP cells grown with ATRA.

PC-3 cells = settings: 9 days, with ATRA (1 nM), FIG. 16
Description: Experiments are conducted on two prostate cancer cell lines, LNCaP cells and PC-3 cells.
This method also is repeated using PC-3 cells.
PC-3 cells were incubated with test compounds for 9 days with medium changes on days 2, 5, and 7 and proliferation assessed as described above.

Chain of ATRA 4-hydroxylase (A0A1U7QD41 entry or part of it): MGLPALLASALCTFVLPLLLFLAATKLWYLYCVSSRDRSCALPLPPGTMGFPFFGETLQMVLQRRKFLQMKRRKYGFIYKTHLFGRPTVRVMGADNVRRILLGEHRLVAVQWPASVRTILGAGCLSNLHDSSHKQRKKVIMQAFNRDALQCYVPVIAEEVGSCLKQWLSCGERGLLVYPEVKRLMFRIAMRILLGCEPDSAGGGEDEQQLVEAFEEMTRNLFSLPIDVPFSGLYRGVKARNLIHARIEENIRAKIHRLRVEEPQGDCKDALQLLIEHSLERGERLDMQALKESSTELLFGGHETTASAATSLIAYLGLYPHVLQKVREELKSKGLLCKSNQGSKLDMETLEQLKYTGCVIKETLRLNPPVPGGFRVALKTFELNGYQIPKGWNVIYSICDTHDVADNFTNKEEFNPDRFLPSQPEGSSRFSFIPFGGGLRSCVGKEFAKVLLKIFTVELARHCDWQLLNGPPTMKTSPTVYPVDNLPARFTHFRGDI

`CC(C=CC1=C(C)C(n2ccnc2)CCC1(C)C)=CC=CC(C)=CC(=O)n1ccnc1` (stereo not drawn) [VN/50A-1] was tested, and the “fold more potent than liarozole” value (ATRA 4-hydroxylase; ratio of IC50 values, liarozole IC50 6,000 nM) was 240,000 fold, the “tumor weights versus control mice” value (PC-3 tumors) was “significantly (P<0.05) lower” and the “reduction of tumor volume compared with control” value (PC-3 tumors; over 7 weeks) was 38%. For the same compound, the “increase of total tumor volume” value (PC-3 tumors; over 7 weeks, control 5.4-fold) was 3.5 fold.
`CC1=C(/C=C/C(C)=C/C=C/C(C)=C/C(=O)O)C(C)(C)CCC1n1ccnc1` (racemic) [VN/14-1, (±)-4-(1H-imidazole-1-yl)retinoic acid] was tested, and the “microsomal conversion of ATRA to polar metabolites” value (ATRA 4-hydroxylase; 1 μM compound, hamster liver microsomes, FIG. 7B) was “significantly suppressed”, the IC50 (ATRA 4-hydroxylase; hamster liver microsomes, Table 2A, initial testing, read-out: IC50 Value) was 100 ± 1 nM and the IC50 (ATRA 4-hydroxylase; hamster liver microsomes, Table 2B, repeated testing and additional compounds, read-out: IC50 Value, Inhibition of ATRA 4-Hydroxylase) was 1.2 ± 0.072 nM. The “inhibition of proliferation of LNCaP cells” value (LNCaP cells) was “inhibit the proliferation of LNCaP cells better than no drug or ATRA only” and the “antiproliferative effect on PC-3 cells” value (PC-3 cells) was “clearly more effective than liarozole”.
